Results published in patent US9968605B2, “2-(2-methylamino-pyrimidin-4-yl)-1h-indole-5-carboxylic acid [(S)-1-carbamoyl-2-(phenyl-pyrimidin-2-yl-amino)-ethyl]-amide for use in the treatment of pain associated to osteoarthritis” (SANOFI, priority 2014, dated 2018).
Entries after “also recorded” stand apart in the source; their conditions may differ.

Assays:
patients with knee OA [1] = test: Clinical trial: safety and tolerability of a single intra-articular dose in patients with knee OA; format: in vivo
Protocol: (§1) The objective of this study was to assess in patients with knee OA, the efficacy, safety and tolerability of a single intra-articular dose of Compound A.
(§2) This was a two-center, double-blind, randomized, placebo controlled, single dose study. Following a review of the safety data up to Day 28 from Part 1 of this study, the second part of the study assessed the efficacy of a single dose of Compound A, selected from the maximum administered/tolerated dose from Part 1 (60 mg), in relieving symptoms of patients with knee OA.
(§3) Screening was performed within 28 days of dosing. Following the single dose of study medication administered via intra-articular injection on Day 1, each patient remained at the Study Unit for 4 hours after dosing and, provided there was no difficulty with tolerability, patients were discharged and returned periodically for outpatient visits. Each patient was followed up to Day 168 (end-of-study visit); therefore the study period was 28 weeks.
Safety was assessed by adverse event (AE) monitoring, standard clinical laboratory evaluations, physical examination, vital sign and electrocardiogram (ECG) assessments, local tolerability at site of injection and assessments of the knee joint (effusion/worsening of effusion).
The safety analysis was based on the review of descriptive statistics and individual data for AEs, clinical laboratory, vital signs, and ECG parameters. Adverse events were coded according to the Medical Dictionary for Regulatory Activities (version 15.1) and the numbers of subjects with treatment-emergent AEs (TEAEs) were tabulated (counts and percents). For clinical laboratory, vital signs, and ECG data, the analyses of abnormalities were based on the definitions of potentially clinically significant abnormalities (PCSAs; definitions according to version 2.0 dated 14 Sep. 2009). Local tolerance/tolerability at the site of injection was summarized by descriptive statistics.

patients with knee OA [2] = test: Clinical trial: WOMAC index scores after a single intra-articular dose in patients with knee OA; format: in vivo, human; settings: for Total WOMAC score, absolute change from baseline, Estimate / WOMAC subscore for Pain, absolute change from baseline, Estimate / WOMAC subscore for Physical function, absolute change from baseline, Estimate / WOMAC subscore for Stiffness, absolute change from baseline, Estimate: 60 mg single intra-articular dose; for Total WOMAC score, Compound A 60 mg vs Placebo, Estimate / WOMAC subscore for Pain, Compound A 60 mg vs Placebo, Estimate / WOMAC subscore for Physical function, Compound A 60 mg vs Placebo, Estimate / WOMAC subscore for Stiffness, Compound A 60 mg vs Placebo, Estimate: difference in change from baseline; for WOMAC subscore for Stiffness, Effect size (90% CI): vs placebo
Protocol: as §1, §2, §3
Compound A was supplied as a lyophilized cake (to be reconstituted in water for injection for intra-articular administration) in vials containing 20, 40 and 80 mg total of active Compound A. The placebo was commercially available 0.9% saline solution for the injection.
The following sub-scales from the WOMAC Index were used to assess the activity of the drug upon pain, stiffness and physical function. Each item will be rated on the basis of the patient's symptoms over the last 48 h, by means of a 5 point Likert Scale: none, mild, moderate, severe, or very severe.
The primary endpoint was the WOMAC Pain sub-scale at Day 56 for evidence of efficacy (change from baseline).
Inclusion criteria are: • Diagnosis of primary knee osteoarthritis, based upon the following: • X-ray or MRI evidence within the last 6 months for joint space narrowing and osteophyte formation—patients will be Kellgren and Lawrence classification II/III, • Total WOMAC score 24-72 and • Fulfilling the American College of Rheumatology Clinical and Radiographic criteria for OA.
Analysis of Efficacy Variables:
Using the primary analysis efficacy population and for WOMAC sub-score for pain on Day 56, treatment mean differences (Compound A minus placebo) in change from baseline and their one-sided 95% upper limit of the confidence interval were computed using linear fixed effects models with fixed terms for treatment group and sex, and with an unstructured R variance/covariance matrix on treatment group for patient within sex blocks, using SAS Proc Mixed®. In case of convergence problems, other variance-covariance structures were explored.
The signs and symptoms of OA were measured with a standard instrument as WOMAC index.
WOMAC index consists of 24 questions in 3 dimensions subscales: • Pain subcale (5 items) • Stiffness subscale (2 items) • Physical function subscale (17 items)
Each item was rated by means of a 5 point Likert scale: none (=0), mild (=1), moderate (=2), severe (=3) and very severe (=4) A total WOMAC score and a WOMAC subscore for each dimension was calculated.
A supportive analysis to the primary analysis was conducted over patients from the efficacy population and with at least one post-dose WOMAC sub-score measurement, using a last observations carried forward (LOCF) approach up to Day 56.
The total WOMAC score and WOMAC sub-score for stiffness and physical function were analysed in the same way as for the primary analysis of WOMAC sub-score for pain.
The treatment mean difference between groups with their one-sided 95% upper limit of the CI was estimated for all other days for all scores. Time profile plots of treatment mean differences with their one-sided 95% upper limit of the CI were provided.
For each WOMAC score (total and sub-scores), the effect size based on the estimated (within the fixed effects model frameworks) mean treatment difference in change from baseline between groups (active versus placebo) were provided at each day with their corresponding 95% CI.

patients with knee OA [3] = test: as above; format: in vivo, human; settings: Day 56; vs placebo; efficacy population (all patients); negative = positive effect of drug
[4] = Day 56, efficacy population (all patients)
[5] = Day 56, patients with effusion at baseline

CNc1nccc(-c2cc3cc(C(=O)N[C@@H](CN(c4ccccc4)c4ncccn4)C(N)=O)ccc3[nH]2)n1 [Compound A, 2-(2-methylamino-pyrimidin-4-yl)-1H-indole-5-carboxylic acid [(S)-1-carbamoyl-2-(phenyl-pyrimidin-2-yl-amino)-ethyl]-amide]
reported TEAEs and their severity, including local reactions at the injection site, vs placebo (0.9% saline) (patients with knee OA [1]; 60 mg single intra-articular dose): no difference between Compound A and placebo | tolerability of single doses (patients with knee OA [1]; 60 mg single intra-articular dose, patients with knee OA): well tolerated | most frequent TEAE (patients with knee OA [1]; after administration of Compound A or placebo, followed by injection site reactions): Arthralgia | Total WOMAC score, absolute change from baseline, Estimate (patients with knee OA [2]; [4]): −10.5566 | WOMAC subscore for Pain, absolute change from baseline, Estimate (patients with knee OA [2]; [4]): −1.8229 | WOMAC subscore for Physical function, absolute change from baseline, Estimate (patients with knee OA [2]; [4]): −7.7966 | WOMAC subscore for Stiffness, absolute change from baseline, Estimate (patients with knee OA [2]; [4]): −0.9406 | Total WOMAC score, absolute change from baseline, Estimate (patients with knee OA [2]; [5]): −17.0761 | WOMAC subscore for Pain, absolute change from baseline, Estimate (patients with knee OA [2]; [5]): −2.9701 | WOMAC subscore for Physical function, absolute change from baseline, Estimate (patients with knee OA [2]; [5]): −12.9658 | WOMAC subscore for Stiffness, absolute change from baseline, Estimate (patients with knee OA [2]; [5]): −1.1672 | effect sizes for WOMAC subscores (patients with knee OA [2]; Day 56, all patients, negative indicates a positive effect of drug against placebo): 0.12 to −0.04 | Total WOMAC score, Compound A 60 mg vs Placebo, Estimate (patients with knee OA [2]; [4]): 1.0495 | WOMAC subscore for Pain, Compound A 60 mg vs Placebo, Estimate (patients with knee OA [2]; [4]): 0.4554 | WOMAC subscore for Physical function, Compound A 60 mg vs Placebo, Estimate (patients with knee OA [2]; [4]): 0.6854 | WOMAC subscore for Stiffness, Compound A 60 mg vs Placebo, Estimate (patients with knee OA [2]; [4]): −0.0573 | Total WOMAC score, Compound A 60 mg vs Placebo, Estimate (patients with knee OA [2]; [5]): −9.3562 | WOMAC subscore for Pain, Compound A 60 mg vs Placebo, Estimate (patients with knee OA [2]; [5]): −1.7213 | WOMAC subscore for Physical function, Compound A 60 mg vs Placebo, Estimate (patients with knee OA [2]; [5]): −6.8188 | WOMAC subscore for Stiffness, Compound A 60 mg vs Placebo, Estimate (patients with knee OA [2]; [5]): −0.9028 | effect on WOMAC Pain subscores, other WOMAC subscores or Total score (patients with knee OA [2]; Day 56, efficacy population (all patients), 60 mg): neither a clinically significant nor a statistically significant effect | WOMAC subscore for Stiffness, Effect size (90% CI) (patients with knee OA [2]; Day 56, efficacy population (all patients), negative = positive effect of drug): −0.04 | WOMAC subscore for Stiffness, Effect size (90% CI) (patients with knee OA [2]; [5]): −0.71 | efficacy on pain in patients with knee osteoarthritis and effusion (WOMAC assessment) (patients with knee OA [2]; subgroup of patients with effusion at baseline): significant efficacy; also recorded: significant effect | Total WOMAC score, Effect size (90% CI) (patients with knee OA [3]): 0.06 | WOMAC subscore for Pain, Effect size (90% CI) (patients with knee OA [3]): 0.12 | WOMAC subscore for Physical function, Effect size (90% CI) (patients with knee OA [3]): 0.06
